Experimental data taken from patent US9845297B2, “Antimicrobial compounds and methods of making and using the same” (Melinta Therapeutics, Inc., priority 2009, dated 2017).

System: Eschericia coli strain ATCC25922
Test: standard microdilution assay to determine minimum inhibitory concentrations (MICs)
Type: cell-based
Conditions: Escherichia coli, ATCC25922, Eschericia coli strain ATCC25922, standard microdilution assay; read-out: E. coli ATCC25922 MIC
In short: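 Broth microdilution per CLSI protocols, typically 100 µL final volume, against E. coli ATCC25922. MIC values scored as +/− against a cutoff of 16 micrograms/ml.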

SMILES | MIC
N=C(N)NCCCCN[C@H](CCCCNC(=N)N)CCn1ccc(NC(N)=O)nc1=O [Compound 120] | > 16 µg/mL
NCCCNC(CCCN)c1ccc(-n2ccc(NC(N)=O)nc2=O)cc1 (stereo not shown) [Compound 144] | > 16 µg/mL
N=C(N)NCCC[C@@H](CCCn1ccc(NC(=O)NS(=O)(=O)c2ccc(F)cc2)nc1=O)NCCCN [Compound 147] | > 16 µg/mL
CN(C)CCN1CCN(c2ccc(C(=O)Nc3ccn(CCC[C@H](CCCNC(=N)N)NCCCN)c(=O)n3)cc2)CC1 [Compound 213] | > 16 µg/mL
O=C(O)CCCNCc1ccc(-c2c[nH]c(NC(=O)Nc3ccccc3OC(F)(F)F)nc2=O)cc1 [Compound 328] | > 16 µg/mL
NCCCN(CCCN)Cc1ccc(-c2c[nH]c(NC(=O)c3ccc(Cl)cc3)nc2=O)cc1 [Compound 173] | > 16 µg/mL
NCCCNCc1ccc(-n2cc(F)c(N)nc2=O)cc1 [Compound 137] | > 16 µg/mL
NCCCC[C@@H](N)CCn1ccc(N)nc1=O [Compound 115] | > 16 µg/mL
N#Cc1ccc(NC(=O)Nc2nc(=O)c(-c3ccc(CN(CCCN)CCCNC(=N)N)cc3)c[nH]2)cc1 [Compound 452] | < 16 µg/mL
O=C(Nc1nc(=O)c(-c2ccc(CNCCCO)cc2)c[nH]1)Nc1ccccc1OC(F)(F)F [Compound 277] | > 16 µg/mL
NCCCN(Cc1ccncc1)Cc1ccc(-c2c[nH]c(NC(=O)Nc3ccccc3OC(F)(F)F)nc2=O)cc1 [Compound 338] | < 16 µg/mL
NCCCNCc1ccc(-c2c[nH]c(NC(=O)Nc3ccccc3OCCNC(N)=O)nc2=O)cc1 [Compound 1295] | > 16 µg/mL
CN(C(=O)C[C@H](CCCNC(=N)N)NC(=O)CCO)C1CNC(NC(N)=O)=NC1=O (stereo partly shown) [Compound 104] | > 16 µg/mL
C[S+]([O-])CCCNCc1ccc(-c2c[nH]c(NC(=O)Nc3cc(F)c(F)cc3F)nc2=O)cc1 (stereo not shown) [Compound 302] | > 16 µg/mL
NCCCCCN1CCC(c2c[nH]c(NC(=O)Nc3cccc(Cl)c3F)nc2=O)CC1 [Compound 549] | > 16 µg/mL
CN(C)C(=O)CN1CCN(c2ccc(NC(=O)Nc3ccn(CCC[C@H](CCCNC(=N)N)NCCCN)c(=O)n3)cc2)CC1 [Compound 214] | > 16 µg/mL

SMILES | MIC
N=C(N)NCCCCN1CCCC(c2c[nH]c(NC(=O)Nc3ccccc3OC(F)(F)F)nc2=O)CC1 (stereo not shown) [Compound 525] | > 16 µg/mL
NCCCN1CCC[C@@H](NC(=O)Nc2nc(=O)c(-c3ccc(CN)cc3)c[nH]2)C1 [Compound 1304] | > 16 µg/mL
N=C(N)NCCC[C@H](N)CCCn1cnc(NC(N)=O)nc1=O [Compound 133] | > 16 µg/mL
CSCCNCc1ccc(-c2c[nH]c(NC(=O)Nc3cc(F)c(F)cc3F)nc2=O)cc1Cl [Compound 268] | > 16 µg/mL
CN(C(=O)C[C@H](CCCNC(=N)N)NC(=N)N)C1CNC(NC(N)=O)=NC1=O (stereo partly shown) [Compound 105] | > 16 µg/mL
NCCCN(CCCO)Cc1ccc(-c2c[nH]c(NC(=O)Nc3cc(F)c(F)cc3F)nc2=O)cc1 [Compound 331] | > 16 µg/mL
N=C(N)NCCCNCc1ccc(-c2c[nH]c(NC(=O)NCCOc3cc(F)c(F)cc3F)nc2=O)cc1 [Compound 739] | > 16 µg/mL
NCCCN[C@@H]1CCCCC1NC(=O)Nc1nc(=O)c(-c2ccc(CN)cc2)c[nH]1 (stereo partly shown) [Compound 1338] | > 16 µg/mL
NCCCN(CCCN)Cc1c(F)cc(-c2c[nH]c(NC(=O)Nc3ccccc3OC(F)(F)F)nc2=O)cc1F [Compound 294] | < 16 µg/mL
NC1CCN(Cc2ccc(-c3c[nH]c(NC(=O)Nc4ccccc4OC(F)(F)F)nc3=O)cc2)CC1 [Compound 251] | < 16 µg/mL
N=C(N)NCCCNCc1ccc(-c2c[nH]c(NC(=O)Nc3ccccc3OC(F)(F)F)nc2=O)cc1 [Compound 332] | < 16 µg/mL
NCCCCCN1CCN(c2c[nH]c(NC(=O)Nc3cc(F)c(F)cc3F)nc2=O)CC1 [Compound 504] | > 16 µg/mL
CN(CCCNCc1ccc(-c2c[nH]c(NC(=O)Nc3ccccc3OC(F)(F)F)nc2=O)cc1)C(=N)N [Compound 346] | < 16 µg/mL
Cc1c(C(=O)Nc2ccn(CCC[C@H](CCCNC(=N)N)NCCCN)c(=O)n2)ccn1-c1ccc(Cl)cc1 [Compound 158] | > 16 µg/mL
CC(C)=CCN(CCCN)Cc1ccc(-c2c[nH]c(NC(=O)Nc3cc(F)c(F)cc3F)nc2=O)cc1 [Compound 303] | < 16 µg/mL

Next, values leading:

MIC | SMILES
> 16 µg/mL | N=C(N)NCCCCN1CCC(c2c[nH]c(Nc3nc4ccccc4[nH]3)nc2=O)CC1 [Compound 510]
> 16 µg/mL | NCCCNCc1ccc(-c2c[nH]c(NCCc3nc4cc(F)c(F)cc4o3)nc2=O)cc1F [Compound 608]
> 16 µg/mL | NCCCNCc1ccc(-c2c[nH]c(NC(=O)Nc3ccc(F)c([N+](=O)[O-])c3)nc2=O)cc1F [Compound 389]
> 16 µg/mL | Cc1cc([N+](=O)[O-])ccc1NC(=O)Nc1nc(=O)c(-c2ccc(CNCCCN)c(F)c2)c[nH]1 [Compound 495]
< 16 µg/mL | NCCCNCc1ccc(-c2c[nH]c(NC(=O)Nc3cc(C(F)(F)F)ccc3Cl)nc2=O)cc1F [Compound 497]
> 16 µg/mL | NCCCNCc1ccc(-c2c[nH]c(NC(=O)Nc3ccc(OC(F)F)cc3)nc2=O)cc1Cl [Compound 244]
> 16 µg/mL | NCCCNCc1ccc(-c2c[nH]c(NC(=O)NCCc3ccc(Cl)cc3)nc2=O)cc1F [Compound 423]
< 16 µg/mL | NCCCNCc1ccc(-c2c[nH]c(Nc3nc4cc(F)c(F)cc4[nH]3)nc2=O)cc1F [Compound 439]
> 16 µg/mL | N=C(N)NCCCCCN1CCN(c2c[nH]c(Nc3nc4ccccc4[nH]3)nc2=O)CC1 [Compound 515]
< 16 µg/mL | NCCCNCc1ccc(-c2c[nH]c(Nc3nc4cc(F)c(F)cc4[nH]3)nc2=O)cc1 [Compound 438]
> 16 µg/mL | NCCCNCc1ccc(-c2c[nH]c(NC(=O)Nc3ccccc3OC(F)(F)F)nc2=O)cn1 [Compound 553]
> 16 µg/mL | NCCCNCc1ccc(-c2c[nH]c(NCCc3nc4cc(F)c(F)cc4[nH]3)nc2=O)cc1F [Compound 607]
< 16 µg/mL | NCCCNCc1ccc(-c2c[nH]c(NC(=O)Nc3ccc(Cl)cc3Cl)nc2=O)cc1F [Compound 496]
> 16 µg/mL | NCCCCCN1CCN(c2c[nH]c(Nc3nc4ccccc4[nH]3)nc2=O)CC1 [Compound 514]
> 16 µg/mL | NCCCN(CCCN)Cc1ccc(-c2c[nH]c(Nc3nc4cc(C(F)(F)F)ccc4s3)nc2=O)cc1F [Compound 357]
> 16 µg/mL | NCCCNCc1ccc(-c2c[nH]c(NC(=O)Nc3cccc(-n4cccc4)c3)nc2=O)cc1F [Compound 418]
> 16 µg/mL | NCCCNCc1ccc(-c2c[nH]c(NC(=O)Nc3cc(F)cc(C(F)(F)F)c3)nc2=O)cc1F [Compound 482]
> 16 µg/mL | N=C(N)NCCCCN1CCN(c2c[nH]c(Nc3nc4ccccc4[nH]3)nc2=O)CC1 [Compound 531]
> 16 µg/mL | NCCCNCc1ccc(-c2c[nH]c(NC(=O)Nc3ccc(Cl)c(C(F)(F)F)c3)nc2=O)cc1F [Compound 459]
> 16 µg/mL | NCCCCN1CCN(c2c[nH]c(Nc3nc4ccccc4[nH]3)nc2=O)CC1 [Compound 530]
> 16 µg/mL | NCCCNCc1ccc(-c2c[nH]c(Nc3ccccc3C(F)(F)F)nc2=O)cc1C(F)(F)F [Compound 376]
> 16 µg/mL | NCCCNCc1ccc(-c2c[nH]c(NC(=O)Nc3cccc(Cl)c3F)nc2=O)cn1 [Compound 552]
< 16 µg/mL | NCCCNCc1ccc(-c2c[nH]c(NC(=O)NCc3ccc(Cl)cc3Cl)nc2=O)cc1F [Compound 463]
< 16 µg/mL | NCCCNCc1ccc(-c2c[nH]c(Nc3nc4ccccc4[nH]3)nc2=O)cc1F [Compound 412]
